Patent US20250230193A1, “CYCLIC COMPOUND HAVING SELECTIVE KRAS INHIBITORY EFFECT ON HRAS AND NRAS” (CHUGAI SEIYAKU KABUSHIKI KAISHA, priority 2022, published 2025)
Where a SMILES comes first, the peptide text is derived from it. Bridges are numbered along the chain shown (N, C = ends). [ ]: non-standard residue; d: D form. The star is where a group is joined. hPhe(3-Cl-4-CF3) = N[C@@H](CCc1ccc(C(F)(F)F)c(Cl)c1)C(=O)O; NPrPhe(4-CF3) = CCCN[C@@H](Cc1ccc(C(F)(F)F)cc1)C(=O)O; NMeGly(cPent) = CN[C@H](C(=O)O)C1CCCC1; Pro(4,4-F2) = O=C(O)[C@@H]1CC(F)(F)CN1; Hyp = O=C(O)[C@@H]1C[C@@H](O)CN1; NMeD = CN[C@@H](CC(=O)O)C(=O)O; NMeL = CN[C@@H](CC(C)C)C(=O)O; Morpholide = C1CN(*)CCO1; Ac5c = NC1(C(=O)O)CCCC1; Aze = O=C(O)[C@@H]1CCN1; Ac4c = NC1(C(=O)O)CCC1; Sar = CNCC(=O)O

Key:
[1] = target: GDP-bound NRAS wild-type protein (Homo sapiens, UniProt P01111); experiment: Binding to NRAS by surface plasmon resonance (SPR), Single Cycle Kinetics; settings: KD ratio NRAS/KRAS, SPR
[2] = target: GDP-bound HRAS wild-type protein (Homo sapiens, UniProt P01112); experiment: Binding to HRAS by surface plasmon resonance (SPR), Single Cycle Kinetics; settings: KD ratio HRAS/KRAS, SPR
Sequence of GDP-bound HRAS wild-type protein (P01112 whole entry): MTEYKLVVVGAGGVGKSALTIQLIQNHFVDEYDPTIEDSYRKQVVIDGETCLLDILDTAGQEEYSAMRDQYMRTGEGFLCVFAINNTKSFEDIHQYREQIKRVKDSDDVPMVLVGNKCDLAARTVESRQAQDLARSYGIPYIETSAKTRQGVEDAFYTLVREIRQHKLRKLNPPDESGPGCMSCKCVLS

Sequence of GDP-bound NRAS wild-type protein (P01111 whole entry): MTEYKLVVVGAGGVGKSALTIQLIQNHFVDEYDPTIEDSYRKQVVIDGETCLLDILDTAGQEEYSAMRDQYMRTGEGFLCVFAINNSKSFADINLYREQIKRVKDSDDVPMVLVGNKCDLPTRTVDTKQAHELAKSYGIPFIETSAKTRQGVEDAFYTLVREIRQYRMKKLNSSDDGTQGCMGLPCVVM

Compound	NRAS/KRAS (ratio of KD value with respect to GDP-bound NRAS wild-type protein to KD value with respect to KRAS) [1]	HRAS/KRAS (ratio of KD value with respect to GDP-bound HRAS wild-type protein to KD value with respect to KRAS) [2]
CCCN1C(=O)[C@@H]2CCN2C(=O)CN(C)C(=O)[C@H]([C@@H](C)CC)NC(=O)[C@H](CC(C)C)N(C)C(=O)C[C@@H](C(=O)N2CCOCC2)N(C)C(=O)[C@H](C2CCCC2)N(C)C(=O)C2(CCC2)NC(=O)[C@@H]2CC(F)(F)CN2C(=O)[C@H](CCc2ccc(C(F)(F)F)c(Cl)c2)NC(=O)CN(C)C(=O)[C@@H]1Cc1ccc(C(F)(F)F)cc1 [PP0409] ([NMeL]I[Sar][Aze][NPrPhe(4-CF3)][Sar][hPhe(3-Cl-4-CF3)][Pro(4,4-F2)][Ac4c][NMeGly(cPent)][NMeD]-Morpholide; lactam N-11)	C (A compound having a KD ratio of 0.1 or more and less than 3 is denoted as C)	C (A compound having a KD ratio of 0.1 or more and less than 3 is denoted as C)
CCCN1C(=O)[C@@H]2CCN2C(=O)CN(C)C(=O)[C@H]([C@@H](C)CC)NC(=O)[C@H](CC(C)C)N(C)C(=O)C[C@@H](C(=O)N2CCOCC2)N(C)C(=O)[C@H](C2CCCC2)N(C)C(=O)C2(CCCC2)NC(=O)[C@@H]2C[C@@H](OCC)CN2C(=O)[C@H](CCc2ccc(C(F)(F)F)c(Cl)c2)NC(=O)CN(C)C(=O)[C@@H]1Cc1ccc(C(F)(F)F)cc1 [PP0410] ([NMeL]I[Sar][Aze][NPrPhe(4-CF3)][Sar][hPhe(3-Cl-4-CF3)][Hyp](Et)[Ac5c][NMeGly(cPent)][NMeD]-Morpholide; lactam N-11)	C (A compound having a KD ratio of 0.1 or more and less than 3 is denoted as C)	B (a compound having 3 or more and less than 10 is denoted as B)
CCCN1C(=O)[C@@H]2CCN2C(=O)CN(C)C(=O)[C@H]([C@@H](C)CC)NC(=O)[C@H](CC(C)C)N(C)C(=O)C[C@@H](C(=O)N2CCOCC2)N(C)C(=O)[C@H](C2CCCC2)N(C)C(=O)C2(CCC2)NC(=O)[C@@H]2C[C@@H](OCC)CN2C(=O)[C@H](CCc2ccc(C(F)(F)F)c(Cl)c2)NC(=O)CN(C)C(=O)[C@@H]1Cc1ccc(C(F)(F)F)cc1 [PP0411] ([NMeL]I[Sar][Aze][NPrPhe(4-CF3)][Sar][hPhe(3-Cl-4-CF3)][Hyp](Et)[Ac4c][NMeGly(cPent)][NMeD]-Morpholide; lactam N-11)	C (A compound having a KD ratio of 0.1 or more and less than 3 is denoted as C)	C (A compound having a KD ratio of 0.1 or more and less than 3 is denoted as C)
CCCN1C(=O)CN(C)C(=O)CN(C)C(=O)[C@H]([C@@H](C)CC)NC(=O)[C@H](CC(C)C)N(C)C(=O)C[C@@H](C(=O)N(C)C)N(C)C(=O)[C@H](C2CCCC2)N(C)C(=O)C2(CCC2)NC(=O)[C@@H]2CCCN2C(=O)[C@H](CCc2ccc(C(F)(F)F)c(Cl)c2)NC(=O)CN(C)C(=O)[C@@H]1Cc1ccc(C(F)(F)F)cc1 [PP0412] ([NMeL]I[Sar][Sar][NPrPhe(4-CF3)][Sar][hPhe(3-Cl-4-CF3)]P[Ac4c][NMeGly(cPent)][NMeD]-NMe2; lactam N-11)	B (a compound having 3 or more and less than 10 is denoted as B)	C (A compound having a KD ratio of 0.1 or more and less than 3 is denoted as C)
CCCN1C(=O)CN(C)C(=O)CN(C)C(=O)[C@H]([C@@H](C)CC)NC(=O)[C@H](CC(C)C)N(C)C(=O)C[C@@H](C(=O)N(C)C)N(C)C(=O)[C@H](C2CCCC2)N(C)C(=O)C2(CCCC2)NC(=O)[C@@H]2CC(F)(F)CN2C(=O)[C@H](CCc2ccc(C(F)(F)F)c(Cl)c2)NC(=O)CN(C)C(=O)[C@@H]1Cc1ccc(C(F)(F)F)cc1 [PP0413] ([NMeL]I[Sar][Sar][NPrPhe(4-CF3)][Sar][hPhe(3-Cl-4-CF3)][Pro(4,4-F2)][Ac5c][NMeGly(cPent)][NMeD]-NMe2; lactam N-11)	C (A compound having a KD ratio of 0.1 or more and less than 3 is denoted as C)	C (A compound having a KD ratio of 0.1 or more and less than 3 is denoted as C)
CCCN1C(=O)CN(C)C(=O)CN(C)C(=O)[C@H]([C@@H](C)CC)NC(=O)[C@H](CC(C)C)N(C)C(=O)C[C@@H](C(=O)N(C)C)N(C)C(=O)[C@H](C2CCCC2)N(C)C(=O)C2(CCC2)NC(=O)[C@@H]2CC(F)(F)CN2C(=O)[C@H](CCc2ccc(C(F)(F)F)c(Cl)c2)NC(=O)CN(C)C(=O)[C@@H]1Cc1ccc(C(F)(F)F)cc1 [PP0414] ([NMeL]I[Sar][Sar][NPrPhe(4-CF3)][Sar][hPhe(3-Cl-4-CF3)][Pro(4,4-F2)][Ac4c][NMeGly(cPent)][NMeD]-NMe2; lactam N-11)	B (a compound having 3 or more and less than 10 is denoted as B)	C (A compound having a KD ratio of 0.1 or more and less than 3 is denoted as C)
CCCN1C(=O)CN(C)C(=O)CN(C)C(=O)[C@H]([C@@H](C)CC)NC(=O)[C@H](CC(C)C)N(C)C(=O)C[C@@H](C(=O)N(C)C)N(C)C(=O)[C@H](C2CCCC2)N(C)C(=O)C2(CCCC2)NC(=O)[C@@H]2C[C@@H](OCC)CN2C(=O)[C@H](CCc2ccc(C(F)(F)F)c(Cl)c2)NC(=O)CN(C)C(=O)[C@@H]1Cc1ccc(C(F)(F)F)cc1 [PP0415] ([NMeL]I[Sar][Sar][NPrPhe(4-CF3)][Sar][hPhe(3-Cl-4-CF3)][Hyp](Et)[Ac5c][NMeGly(cPent)][NMeD]-NMe2; lactam N-11)	B (a compound having 3 or more and less than 10 is denoted as B)	B (a compound having 3 or more and less than 10 is denoted as B)
CCCN1C(=O)CN(C)C(=O)CN(C)C(=O)[C@H]([C@@H](C)CC)NC(=O)[C@H](CC(C)C)N(C)C(=O)C[C@@H](C(=O)N(C)C)N(C)C(=O)[C@H](C2CCCC2)N(C)C(=O)C2(CCC2)NC(=O)[C@@H]2C[C@@H](OCC)CN2C(=O)[C@H](CCc2ccc(C(F)(F)F)c(Cl)c2)NC(=O)CN(C)C(=O)[C@@H]1Cc1ccc(C(F)(F)F)cc1 [PP0416] ([NMeL]I[Sar][Sar][NPrPhe(4-CF3)][Sar][hPhe(3-Cl-4-CF3)][Hyp](Et)[Ac4c][NMeGly(cPent)][NMeD]-NMe2; lactam N-11)	B (a compound having 3 or more and less than 10 is denoted as B)	C (A compound having a KD ratio of 0.1 or more and less than 3 is denoted as C)
CCCN1C(=O)CN(C)C(=O)CNC(=O)[C@H]([C@@H](C)CC)NC(=O)[C@H](CC(C)C)N(C)C(=O)C[C@@H](C(=O)N(C)C)N(C)C(=O)[C@H](C2CCCC2)N(C)C(=O)C2(CCCC2)NC(=O)[C@@H]2CCCN2C(=O)[C@H](CCc2ccc(C(F)(F)F)c(Cl)c2)NC(=O)CN(C)C(=O)[C@@H]1Cc1ccc(C(F)(F)F)cc1 [PP0417] ([NMeL]IG[Sar][NPrPhe(4-CF3)][Sar][hPhe(3-Cl-4-CF3)]P[Ac5c][NMeGly(cPent)][NMeD]-NMe2; lactam N-11)	B (a compound having 3 or more and less than 10 is denoted as B)	C (A compound having a KD ratio of 0.1 or more and less than 3 is denoted as C)
CCCN1C(=O)CN(C)C(=O)CNC(=O)[C@H]([C@@H](C)CC)NC(=O)[C@H](CC(C)C)N(C)C(=O)C[C@@H](C(=O)N(C)C)N(C)C(=O)[C@H](C2CCCC2)N(C)C(=O)C2(CCC2)NC(=O)[C@@H]2CCCN2C(=O)[C@H](CCc2ccc(C(F)(F)F)c(Cl)c2)NC(=O)CN(C)C(=O)[C@@H]1Cc1ccc(C(F)(F)F)cc1 [PP0418] ([NMeL]IG[Sar][NPrPhe(4-CF3)][Sar][hPhe(3-Cl-4-CF3)]P[Ac4c][NMeGly(cPent)][NMeD]-NMe2; lactam N-11)	B (a compound having 3 or more and less than 10 is denoted as B)	C (A compound having a KD ratio of 0.1 or more and less than 3 is denoted as C)
CCCN1C(=O)CN(C)C(=O)CNC(=O)[C@H]([C@@H](C)CC)NC(=O)[C@H](CC(C)C)N(C)C(=O)C[C@@H](C(=O)N(C)C)N(C)C(=O)[C@H](C2CCCC2)N(C)C(=O)C2(CCCC2)NC(=O)[C@@H]2CC(F)(F)CN2C(=O)[C@H](CCc2ccc(C(F)(F)F)c(Cl)c2)NC(=O)CN(C)C(=O)[C@@H]1Cc1ccc(C(F)(F)F)cc1 [PP0419] ([NMeL]IG[Sar][NPrPhe(4-CF3)][Sar][hPhe(3-Cl-4-CF3)][Pro(4,4-F2)][Ac5c][NMeGly(cPent)][NMeD]-NMe2; lactam N-11)	B (a compound having 3 or more and less than 10 is denoted as B)	C (A compound having a KD ratio of 0.1 or more and less than 3 is denoted as C)
CCCN1C(=O)CN(C)C(=O)CNC(=O)[C@H]([C@@H](C)CC)NC(=O)[C@H](CC(C)C)N(C)C(=O)C[C@@H](C(=O)N(C)C)N(C)C(=O)[C@H](C2CCCC2)N(C)C(=O)C2(CCC2)NC(=O)[C@@H]2CC(F)(F)CN2C(=O)[C@H](CCc2ccc(C(F)(F)F)c(Cl)c2)NC(=O)CN(C)C(=O)[C@@H]1Cc1ccc(C(F)(F)F)cc1 [PP0420] ([NMeL]IG[Sar][NPrPhe(4-CF3)][Sar][hPhe(3-Cl-4-CF3)][Pro(4,4-F2)][Ac4c][NMeGly(cPent)][NMeD]-NMe2; lactam N-11)	B (a compound having 3 or more and less than 10 is denoted as B)	C (A compound having a KD ratio of 0.1 or more and less than 3 is denoted as C)
